ChEMBL document CHEMBL5506037, “Synthesis of Heterocyclic Ring-Fused Bisnoralcohol Derivatives as Novel Small-Molecule Antiosteoporosis Agents” (J Med Chem, 2024)
Active and inactive are the calls of the source. No cut-off for these calls is given here.

Legend:
BMMC [1] = assay: Anti-osteoclastogenesis activity in M-CSF/RANKL-induced C57BL/6J mouse BMMC cells assessed as inhibition of osteoclast differentiation at 1 uM incubated for 7 days by TRAP staining based analysis relative to control; assay type: functional; conditions: 168 h, time 7 day
[2] = Cytotoxicity against M-CSF induced C57BL/6J mouse BMMC cells assessed as cell viability at 10 uM incubated for 48 hrs by CCK-8 assay relative to control; assay type: toxicity, cell-based; conditions: read-out: Activity
[3] = Tmax in ICR mouse at 1 mg/kg, iv measured upto 24 hrs by LC-MS/MS analysis; assay type: ADME, organism-based; conditions: in vivo
[4] = Cmax in ICR mouse at 10 mg/kg, po measured upto 24 hrs by LC-MS/MS analysis; assay type: ADME, organism-based; conditions: in vivo
[5] = AUC (0 to infinity) in ICR mouse at 10 mg/kg, po measured upto 24 hrs by LC-MS/MS analysis; assay type: ADME, organism-based; conditions: in vivo
[6] = Terminal elimination half life in ICR mouse at 10 mg/kg, po measured upto 24 hrs by LC-MS/MS analysis; assay type: ADME, organism-based; conditions: in vivo, read-out: beta t1/2 (converted)
[7] = Oral bioavailability in ICR mouse at 10 mg/kg measured upto 24 hrs by LC-MS/MS analysis; assay type: ADME, organism-based; conditions: in vivo
BMMC [8] = assay: Anti-osteoclastogenesis activity in M-CSF/RANKL-induced C57BL/6J mouse BMMC cells assessed as inhibition of osteoclast differentiation incubated for 7 days by TRAP staining based analysis; assay type: functional, cell-based; conditions: 168 h
BMMC [9] = assay: Anti-osteoclastogenesis activity in M-CSF/RANKL-induced C57BL/6J mouse BMMC cells assessed as inhibition of osteoclast differentiation at mid-stage at 0.1 uM measured after 3 to 5 days by TRAP staining based analysis relative to control; assay type: functional; conditions: time 3-5 day
BMMC [10] = assay: Anti-osteoclastogenesis activity in M-CSF/RANKL-induced C57BL/6J mouse BMMC cells assessed as reduction in TRAP mRNA expression at 0.05 to 5 uM measured after 2 days by RT-qPCR analysis; assay type: functional, cell-based; conditions: dose 0.05-5 µM, time 2.0 day
BMMC [11] = assay: Anti-osteoclastogenesis activity in M-CSF/RANKL-induced C57BL/6J mouse BMMC cells assessed as reduction in c-Fos mRNA expression at 0.05 to 5 uM measured after 2 days by RT-qPCR analysis; assay type: functional, cell-based; conditions: dose 0.05-5 µM, time 2.0 day
BMMC [12] = assay: Anti-osteoclastogenesis activity in M-CSF/RANKL-induced C57BL/6J mouse BMMC cells assessed as reduction in CTSK mRNA expression at 0.05 to 5 uM measured after 2 days by RT-qPCR analysis; assay type: functional, cell-based; conditions: dose 0.05-5 µM, time 2.0 day
BMMC [13] = assay: Anti-osteoclastogenesis activity in M-CSF/RANKL-induced C57BL/6J mouse BMMC cells assessed as inhibition of Fosl1 gene expression by RNA sequencing analysis; assay type: functional, cell-based
BMMC [14] = assay: Anti-osteoclastogenesis activity in M-CSF/RANKL-induced C57BL/6J mouse BMMC cells assessed as inhibition of Fosl2 gene expression by RNA sequencing analysis; assay type: functional, cell-based
BMMC [15] = assay: Anti-osteoclastogenesis activity in M-CSF/RANKL-induced C57BL/6J mouse BMMC cells assessed as inhibition of Il1b gene expression by RNA sequencing analysis; assay type: functional, cell-based
BMMC [16] = assay: Anti-osteoclastogenesis activity in M-CSF/RANKL-induced C57BL/6J mouse BMMC cells assessed as inhibition of Itgb3 gene expression by RNA sequencing analysis; assay type: functional, cell-based
BMMC [17] = assay: Anti-osteoclastogenesis activity in M-CSF/RANKL-induced C57BL/6J mouse BMMC cells assessed as inhibition of lilra5 gene expression by RNA sequencing analysis; assay type: functional, cell-based
BMMC [18] = assay: Anti-osteoclastogenesis activity in M-CSF/RANKL-induced C57BL/6J mouse BMMC cells assessed as inhibition of Mapk12 gene expression by RNA sequencing analysis; assay type: functional, cell-based
BMMC [19] = assay: Anti-osteoclastogenesis activity in M-CSF/RANKL-induced C57BL/6J mouse BMMC cells assessed as inhibition of Nfatc1 gene expression by RNA sequencing analysis; assay type: functional, cell-based
Mus musculus [20] = assay: Anti-osteoporosis activity in ovariectomized C57BL/6 mouse assessed as prevention of bone loss by measuring recovery of trabecular number in femur at 0.6 mg/kg, ip administered every day for 6 weeks by 3D-imaging analysis relative to control; assay type: functional
Mus musculus [21] = assay: Anti-osteoporosis activity in ovariectomized C57BL/6 mouse assessed as prevention of bone loss by measuring recovery of trabecular spacing in femur at 0.6 mg/kg, ip administered every day for 6 weeks by 3D-imaging analysis relative to control; assay type: functional
Mus musculus [22] = assay: Anti-osteoporosis activity in ovariectomized C57BL/6 mouse assessed as prevention of bone loss by measuring reduction in osteoclast formation at 0.6 mg/kg, ip administered every day for 6 weeks by H and E staining based analysis; assay type: functional, organism-based
Mus musculus [23] = assay: Anti-osteoporosis activity in ovariectomized C57BL/6 mouse assessed as prevention of bone loss by measuring reduction in osteoclast formation at 0.6 mg/kg, ip administered every day for 6 weeks by TRAP staining based analysis; assay type: functional, organism-based

Tmax [3]: 4.8 min | Cmax [4]: 230 ng/mL | AUC(0-inf) [5]: 688 ng·h/mL | half-life [6]: 107 min | bioavailability [7]: 13.1%
SMILES: CCNC(=O)[C@@H](C)[C@H]1CC[C@H]2[C@@H]3CC=C4C(C)(C)c5nnsc5C[C@]4(C)[C@H]3CC[C@]12C
inhibition at 1 µM (BMMC [1]): 100% | viability at 48 h, 10 µM [2]: ≥ 100% | IC50 (BMMC [8]): 0.052 µM | inhibition at 0.1 µM (BMMC [9]): 40.2% | Activity (BMMC [10]): Active | Activity (BMMC [11]): Active | Activity (BMMC [12]): Active | Activity (BMMC [13]): Active | Activity (BMMC [14]): Active | Activity (BMMC [15]): Active | Activity (BMMC [16]): Active | Activity (BMMC [17]): Active | Activity (BMMC [18]): Active | Activity (BMMC [19]): Active | Activity (Mus musculus [20]): 48.64% | Activity (Mus musculus [21]): 61.09% | Activity (Mus musculus [22]): Active | Activity (Mus musculus [23]): Active
